Experimental findings from patent US12600728B2, “Interleukin-17 inhibitors” (priority 2020, dated 2026) are described below.

Molecules are shown by their SMILES. Like-named read-outs stand apart in the source and are kept apart here.

In test [1] the target is biotinylated human IL-17A / AF647-labeled human IL-17RA (Homo sapiens, UniProt Q16552). Description: Human IL-17A×IL-17RA TR-FRET assay. Format: binding. In outline: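 Compounds tested in duplicate at each concentration; neutral controls contain all components with DMSO in place of compound.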
Chain of biotinylated human IL-17A / AF647-labeled human IL-17RA (Q16552 24-155): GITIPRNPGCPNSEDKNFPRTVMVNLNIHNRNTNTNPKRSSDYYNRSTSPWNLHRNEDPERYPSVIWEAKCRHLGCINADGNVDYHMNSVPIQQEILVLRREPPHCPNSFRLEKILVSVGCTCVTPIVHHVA
The target of test [2] is recombinant human IL-17AA (Homo sapiens, UniProt Q16552). Description: IL-6 release from NHDF cells, IL-17AA plus TNF-α stimulation. Format: cell-based. The settings on record: 24 hours, IL-6 by ELISA. In outline: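 IL-17-specific IL-6 release from NHDF cells adhered overnight; compounds pre-incubated 30 min at room temperature with human IL-17AA plus TNF-α, then 24 h on cells at 37° C. Final DMSO 0.1% or plasma 20%; IL-6 by ELISA (450 nm). TNF-α-only IL-6 subtracted before IC50 fit.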
Chain of recombinant human IL-17AA (Q16552 24-155): as above

[3] abbreviates: TR-FRET, 5 nM IL-17A, 30 nM IL-17RA, read-out: IL17AA FRET/ IL17Rawt IC50.
The mark [4] stands for this setting: NHDF cells, IL-17AA 30 pM + TNF-α 6 pM, read-out: IL17AA + TNF IC50 IL-6.
[5] abbreviates: TR-FRET, biotinylated human IL-17A 5 nM, AF647-labeled human IL-17RA 30 nM, read-out: IL17AA FRET/ IL17Rawt IC50.
Setting [6] is: NHDF cells, IL-17AA 30 pM plus TNF-α 6 pM, read-out: IL17AA + TNF IC50 IL-6.

Consider `Cc1cc[n+]([O-])c(C)c1-c1ccc(NC(=O)[C@@H](NC(=O)c2ccnn2C)[C@H]2CCC[C@H](F)CC2)cc1` [Example 197, 3-(4-((S)-2-((1S,4S)-4-fluorocycloheptyl)-2-(1-methyl-1H-pyrazole-5-carboxamido)acetamido)phenyl)-2,4-dimethylpyridine 1-oxide], for which the values for the IC50 in test [1] (setting [3]) and in test [2] (setting [4]) were 213 nM and 121 nM, respectively.

On to `Cc1cc[n+]([O-])c(C)c1-c1ccc(NC(=O)[C@@H](NC(=O)c2conc2C)C2CCCC2)cc1` [Example 37, (S)-3-(4-(2-cyclopentyl-2-(3-methylisoxazole-4-carboxamido)acetamido)phenyl)-2,4-dimethylpyridine 1-oxide], for which the IC50 turned out to be 396 nM in test [1] (setting [5]) and 60 nM in test [2] (setting [6]).

Take `CC(=O)N1CCn2c(ccc2C(=O)N[C@H](C(=O)Nc2ccc(-c3c(Cl)cc[n+]([O-])c3C)c(F)c2)C2CCCCCC2)C1` [Example 134, 3-(4-((S)-2-(2-acetyl-1,2,3,4-tetrahydropyrrolo[1,2-a]pyrazine-6-carboxamido)-2-cycloheptylacetamido)-2-fluorophenyl)-4-chloro-2-methylpyridine 1-oxide]: the IC50 stood at 72.8 nM in test [1] (setting [5]) and 7 nM in test [2] (setting [6]).

For `CCc1nocc1C(=O)N[C@H](C(=O)Nc1ccc(-c2c(C)cc[n+]([O-])c2C)cc1)[C@@H]1CC=C(F)CC1` [Example 28, 3-(4-((S)-2-(3-ethylisoxazole-4-carboxamido)-2-((S)-4-fluorocyclohex-3-en-1-yl)acetamido)phenyl)-2,4-dimethylpyridine 1-oxide], the IC50 in test [1] (setting [5]) is 20 nM; in test [2] (setting [6]) it was 22 nM.

For the compound `Cc1c(-c2ccc(NC(=O)[C@@H](NC(=O)c3ccnn3C)C3CCCCC3)cc2F)c(Cl)cc[n+]1[O-]` (single isomer, unassigned) [Example 2b], the IC50 was found to be 17 nM in test [1] (setting [5]) and 14 nM in test [2] (setting [6]).

With `Cc1cc[n+]([O-])c(C)c1-c1ccc(NC(=O)[C@@H](NC(=O)c2ccc3n2CCN(C)C3)C2CCCCCC2)cc1` [Example 120, (S)-3-(4-(2-cycloheptyl-2-(2-methyl-1,2,3,4-tetrahydropyrrolo[1,2-a]pyrazine-6-carboxamido)acetamido)phenyl)-2,4-dimethylpyridine 1-oxide], the IC50 in test [1] (setting [5]) was determined as 94 nM; in test [2] (setting [6]), 4 nM.

For `CC(=O)N1CCn2c(ccc2C(=O)N[C@H](C(=O)Nc2ccc(-c3c(Cl)cc[n+]([O-])c3C)c(F)c2)C2CCCCC2)C1` [Example 187, 3-(4-((S)-2-(2-acetyl-1,2,3,4-tetrahydropyrrolo[1,2-a]pyrazine-6-carboxamido)-2-cyclohexylacetamido)-2-fluorophenyl)-4-chloro-2-methylpyridine 1-oxide], the figures for the IC50 in test [1] (setting [3]) and in test [2] (setting [4]) were 85.4 nM and 17 nM, respectively.

`Cc1cc[n+]([O-])c(C)c1-c1ccc(NC(=O)C(NC(=O)c2ccnn2C)C2CCC(C)CC2)cc1` [Example 3, 2,4-dimethyl-3-(4-((S)-2-(1-methyl-1H-pyrazole-5-carboxamido)-2-((1r,4S)-4-methylcyclohexyl)acetamido)phenyl)pyridine 1-oxide]: the IC50 in test [1] (setting [5]) stood at 24 nM; in test [2] (setting [6]), 7 nM.

Take `Cc1c(-c2ccc(NC(=O)[C@@H](NC(=O)c3ccc4n3CCNC4)C3CCC(F)(F)CC3)cc2F)c(Cl)cc[n+]1[O-]` [Example 179, 4-chloro-3-(4-((S)-2-(4,4-difluorocyclohexyl)-2-(1,2,3,4-tetrahydropyrrolo[1,2-a]pyrazine-6-carboxamido)acetamido)-2-fluorophenyl)-2-methylpyridine 1-oxide]: the figures for the IC50 in test [1] (setting [3]) and in test [2] (setting [4]) were 13.9 nM and 60 nM, respectively.

For the compound `Cc1cc[n+]([O-])c(C)c1-c1ccc(NC(=O)[C@@H](NC(=O)c2conc2C)C2CCCCCC2)nc1` [Example 44, (S)-6′-(2-cycloheptyl-2-(3-methylisoxazole-4-carboxamido)acetamido)-2,4-dimethyl-[3,3′-bipyridine] 1-oxide], the IC50 is 34 nM in test [1] (setting [5]) and 18 nM in test [2] (setting [6]).

For `Cc1cc[n+]([O-])c(C)c1-c1ccc(NC(=O)[C@@H](NC(=O)c2ccnn2C2CC2)C2CCCCCC2)cc1` [Example 42, (S)-3-(4-(2-cycloheptyl-2-(1-cyclopropyl-1H-pyrazole-5-carboxamido)acetamido)phenyl)-2,4-dimethylpyridine 1-oxide], the IC50 in test [1] (setting [5]) came to 26 nM; in test [2] (setting [6]), 12 nM.

Turning to `CCn1nccc1C(=O)N[C@H](C(=O)Nc1ccc(-c2cc(Cl)c[n+]([O-])c2C)cc1)C1CCC(F)(F)CC1` [Example 170, (S)-5-chloro-3-(4-(2-(4,4-difluorocyclohexyl)-2-(1-ethyl-1H-pyrazole-5-carboxamido)acetamido)phenyl)-2-methylpyridine 1-oxide], the IC50 was determined as 402 nM in test [1] (IL17AA FRET/ IL17Rawt IC50, TR-FRET, 5 nM IL-17A, 30 nM IL-17RA) and 231 nM in test [2] (IL17AA + TNF IC50 IL-6, NHDF cells, IL-17AA 30 pM + TNF-α 6 pM).

On to `CCn1nccc1C(=O)NC(C(=O)Nc1ccc(-c2c(Cl)cc[n+]([O-])c2C)cc1)C1CC2CC2C1` (single isomer, unassigned) [Example 209], for which the IC50 in test [1] (setting [3]) was 381 nM; in test [2] (setting [4]), 175 nM.

Turning to `COCc1nocc1C(=O)NC(C(=O)Nc1ccc(-c2c(C)cc[n+]([O-])c2C)cc1)C1CCC(C(F)(F)F)CC1` [Example 25, 3-(4-((S)-2-(3-(methoxymethyl)isoxazole-4-carboxamido)-2-((1r,4S)-4-(trifluoromethyl)cyclohexyl)acetamido)phenyl)-2,4-dimethylpyridine 1-oxide], the IC50 in test [1] (setting [5]) worked out at 178 nM; in test [2] (setting [6]), 69 nM.

As for `CCn1nccc1C(=O)N[C@H](C(=O)Nc1ccc(-c2c(C)cc[n+]([O-])c2C)cc1)C1CCCC1` [Example 35, (S)-3-(4-(2-cyclopentyl-2-(1-ethyl-1H-pyrazole-5-carboxamido)acetamido)phenyl)-2,4-dimethylpyridine 1-oxide], the IC50 in test [1] (setting [5]) came to 306 nM; in test [2] (setting [6]), 212 nM.

`Cn1nccc1C(=O)N[C@H](C(=O)Nc1ccc(-c2c[n+]([O-])ccc2Cl)c(F)c1)C1CCCCC1` [Example 93, (S)-4-chloro-3-(4-(2-cyclohexyl-2-(1-methyl-1H-pyrazole-5-carboxamido)acetamido)-2-fluorophenyl)pyridine 1-oxide]: the IC50 in test [1] (setting [5]) worked out at 601 nM; in test [2] (setting [6]) it was 58 nM.

For the compound `Cc1cc[n+]([O-])c(C)c1-c1ccc(NC(=O)[C@@H](NC(=O)c2cn[nH]c2C(C)C)C2CCCCC2)cc1` [Example 157, (S)-3-(4-(2-cyclohexyl-2-(5-isopropyl-1H-pyrazole-4-carboxamido)acetamido)phenyl)-2,4-dimethylpyridine 1-oxide], the IC50 in test [1] (setting [3]) is 170 nM; in test [2] (setting [4]) it was 105 nM.

Regarding `Cc1cc[n+]([O-])c(C)c1-c1ccc(NC(=O)[C@@H](NC(=O)c2ccnn2C)C2CCC(F)(F)CC2)cc1F` [Example 109, 3-(4-((S)-2-(4,4-difluorocyclohexyl)-2-(1-methyl-1H-pyrazole-5-carboxamido)acetamido)-2-fluorophenyl)-2,4-dimethylpyridine 1-oxide], the IC50 came to 164 nM in test [1] (setting [5]) and 84 nM in test [2] (setting [6]).

As to `Cc1c(-c2ccc(NC(=O)[C@@H](NC(=O)c3ccc4n3CCN(C)C4)C3CCC(F)(F)CC3)cc2F)c(Cl)cc[n+]1[O-]` [Example 164, 4-chloro-3-(4-((S)-2-(4,4-difluorocyclohexyl)-2-(2-methyl-1,2,3,4-tetrahydropyrrolo[1,2-a]pyrazine-6-carboxamido)acetamido)-2-fluorophenyl)-2-methylpyridine 1-oxide], the IC50 in test [1] (setting [3]) came out at 199 nM; in test [2] (setting [4]), 45 nM.

For `Cc1cc[n+]([O-])c(C)c1-c1ccc(NC(=O)C(NC(=O)c2ccc3n2CCN(C)C3)C2CCC(C)CC2)cc1` [Example 121, 2,4-dimethyl-3-(4-((S)-2-(2-methyl-1,2,3,4-tetrahydropyrrolo[1,2-a]pyrazine-6-carboxamido)-2-((1r,4S)-4-methylcyclohexyl)acetamido)phenyl)pyridine 1-oxide], the IC50 in test [1] (setting [5]) was found to be 111 nM; in test [2] (setting [6]), 17 nM.

`Cc1c(-c2ccc(NC(=O)C(NC(=O)c3ccnn3C(C)C)C3CCCC(F)(F)C3)cc2)c(Cl)cc[n+]1[O-]` (stereo not shown) [Example 158, 4-chloro-3-(4-(2-(3,3-difluorocyclohexyl)-2-(1-isopropyl-1H-pyrazole-5-carboxamido)acetamido)phenyl)-2-methylpyridine 1-oxide]: the IC50 was under 6.1 nM in test [1] (setting [3]) and 15.5 nM in test [2] (setting [4]).

Consider `Cc1cc[n+]([O-])c(C)c1-c1ccc(NC(=O)[C@@H](NC(=O)c2ccc3n2CCNC3)C2CCC(F)(F)CC2)cc1` [Example 207, (S)-3-(4-(2-(4,4-difluorocyclohexyl)-2-(1,2,3,4-tetrahydropyrrolo[1,2-a]pyrazine-6-carboxamido)acetamido)phenyl)-2,4-dimethylpyridine 1-oxide], for which the IC50 in test [1] (setting [3]) was 303 nM; in test [2] (setting [4]), 69 nM.

For `CC(=O)N1CCn2c(ccc2C(=O)N[C@H](C(=O)Nc2ccc(-c3c(C)c[n+]([O-])cc3C)cc2)C2CCCCCC2)C1` [Example 118, (S)-4-(4-(2-(2-acetyl-1,2,3,4-tetrahydropyrrolo[1,2-a]pyrazine-6-carboxamido)-2-cycloheptylacetamido)phenyl)-3,5-dimethylpyridine 1-oxide], the values for the IC50 in test [1] (setting [5]) and in test [2] (setting [6]) were 183 nM and 20 nM, respectively.
